In BigSolDB 2.1:

O=C(O)c1ccc(C(=O)O)o1
solubility (mole fraction)
Conditions	in 1,2-dimethoxyethane	in 1,4-dioxane	in THF	in diglyme
293.15 K	–	–	0.00772	–
298.15 K	–	–	0.00826	–
303.15 K	0.00344	0.00421	0.00884	0.00653
308.15 K	0.00372	0.00458	0.00939	0.00704
313.15 K	0.0039	0.00481	0.00998	0.00735
318.15 K	0.0041	0.00521	0.0108	0.00767
323.15 K	0.00432	0.00573	0.0116	0.00801
328.15 K	0.00458	0.00631	0.0122	0.00842
333.15 K	0.00487	0.00739	0.0128	0.00887
338.15 K	0.00528	0.00827	–	0.00937
343.15 K	0.00558	0.00886	–	0.00965
348.15 K	–	–	–	0.0103
353.15 K	–	–	–	0.0105
